Reference: US9657081B2, “Inhibiting peptides derived from triggering receptor expressed on myeloid cells-1 (TREM-1) TREM-like transcript 1 (TLT-1) for treatment of cardiovascular diseases” (INSERM (Institut National de la Sante et de la Recherche …, priority 2013, dated 2017)

Tests used:
TREM-1 [1] = experiment: Rat model of sepsis-induced cardiac dysfunction, intrinsic cardiac function by Millar catheter; format: in vivo; design: dpdtmax/Ved / PRSW: unit not given beside the values; FEVG / ESPVR: unit not given here
Excerpt: TREM-1- and TLT-1-derived peptides administration during rat model of sepsis-induced cardiac dysfunction is associated with an increase of intrinsic cardiac function measured by Millar catheter (FEVG, ESPVR, dpdtmax/Ved, PRSW).
Rats were anaesthetized with isoflurane and a 2 F high-fidelity micro-manometer catheter (SPR-407, Millar Institute, Houston, Tex., USA) was inserted into the LV via the right carotid artery. The Millar catheter was connected to a Harvard Data Acquisition System interfaced with a PC with the AcqKnowledge III software (ACQ 3.2).

TREM-1 [2] = molecular target: T1, TREM-1 (Mus musculus, UniProt Q9JKE2); experiment: Mouse myocardial infarction, myocardial inflammatory reaction and protease activity in infarcted tissue; format: in vivo; settings: myocardium after coronary artery ligation
T1 construct: endogenous in cells; host or cells: living mice (C57BL, Balb/c, ApoE-/-), in vivo
T1 sequence (Q9JKE2 21-230): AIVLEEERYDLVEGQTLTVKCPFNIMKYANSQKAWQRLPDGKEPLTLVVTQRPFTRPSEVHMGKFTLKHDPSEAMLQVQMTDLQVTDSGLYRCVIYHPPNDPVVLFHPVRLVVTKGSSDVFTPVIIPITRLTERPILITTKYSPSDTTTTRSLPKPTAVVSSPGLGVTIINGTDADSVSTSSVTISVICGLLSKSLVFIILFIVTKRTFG
Method: For these experiments, myocardial lysate was obtained 24 hours after the induction of myocardial infarction from mice treated with TREM-1- and TLT-1-derived peptides or control LR12-scrambled peptide (‘controls’). Two areas were studied: a healthy area harvested distally from the infarcted zone in a control animal and an infarcted area. Data are representative of at least 5 different experiments. Results are mean±SD. p values are *p<0.001 [LR12 versus controls].
For these experiments, myocardial lysate was obtained 6, 24 and/or 96 hours after the induction of myocardial infarction from mice treated with TREM-1- and TLT-1-derived peptides or control LR12-scrambled peptide (‘controls’). Infarcted areas were analyzed for cytokine/chemokine production. Data are representative of at least 5 different experiments. p values are *p<0.001 [LR12 versus controls].
For these experiments, myocardial lysate was obtained 6, 24 and 96 hours after the induction of myocardial infarction from mice treated with TREM-1- and TLT-1-derived peptides or control LR12-scrambled peptide (‘controls’). Infarcted areas were analyzed. […]
Mice were monitored after surgery for mortality. Mice were randomized to receive or not peptides (daily ip injection for 5 days, 5 mg/kg) and monitored for survival. […]
MMP-9 enzymatic activity in tissue extracts was determined by SDS-PAGE gelatin zymography. […]

Sequence: LQEEDAGEYGCM (listed as Homo sapiens) [TLT1-LR12]
- ESPVR (TREM-1 [1]): 2.7 ± 0.1
- FEVG (TREM-1 [1]): 77.2 ± 9.2
- PRSW (TREM-1 [1]): 143 ± 7
- dpdtmax/Ved (TREM-1 [1]): 158 ± 18
- myocardial infarction-induced gene activation (innate immunity / endothelial function genes) (TREM-1 [2]): opposed to myocardial infarction-induced gene activation
